According to patent US7566708B2, “Substituted pyrazolo{3,4-D}pyrimidines as p38 map kinase inhibitors” (Roche Palo Alto LLC, priority 2005, dated 2009):

target: T1, p38 MAP kinase (Homo sapiens, UniProt Q16539); experiment: p38 (MAP) kinase in vitro assay; format: biochemical; settings: transfer of γ-33P from ATP to Myelin Basic Protein by phosphorylated recombinant p38 MAP kinase
T1 construct: made in house; host or cells: E. coli (co-expressed with SEK-1 and MEKK to obtain the phosphorylated form)
T1 sequence (Q16539 whole entry): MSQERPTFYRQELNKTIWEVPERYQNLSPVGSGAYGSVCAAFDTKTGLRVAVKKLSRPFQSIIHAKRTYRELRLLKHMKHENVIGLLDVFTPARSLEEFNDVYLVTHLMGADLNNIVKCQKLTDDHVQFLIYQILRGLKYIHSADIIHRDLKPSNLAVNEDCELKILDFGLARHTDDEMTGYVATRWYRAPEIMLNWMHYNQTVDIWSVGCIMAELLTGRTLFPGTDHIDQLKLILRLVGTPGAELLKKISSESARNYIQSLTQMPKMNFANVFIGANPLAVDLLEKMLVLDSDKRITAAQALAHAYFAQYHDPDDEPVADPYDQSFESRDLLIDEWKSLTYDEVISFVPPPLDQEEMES
Experimental: This example illustrates a p38 (MAP) kinase in vitro assay useful for evaluating the compounds of the invention.
The p38 MAP kinase inhibitory activity of compounds of this invention in vitro was determined by measuring the transfer of the γ-phosphate from γ-^33P-ATP by p-38 kinase to Myelin Basic Protein (MBP), using a minor modification of the method described in Ahn, et al., J. Biol. Chem. 266:4220-4227 (1991). […] The phosphorylated form of the recombinant p38 MAP kinase was co-expressed with SEK-1 and MEKK in E. Coli (see, Khokhlatchev, et al., J. Biol. Chem. 272:11057-11062 (1997)) and then purified by affinity chromatography using a Nickel column.
The phosphorylated p38 MAP kinase was diluted in kinase buffer (20 mM 3-(N-morpholino)propanesulfonic acid, pH 7.2, 25 mM β-glycerol phosphate, 5 mM ethylene glycol-bis(beta-aminoethyl ether)-N,N,N′,N′-tetraacetic acid, 1 mM sodium or tho-vanadate, 1 mM dithiothreitol, 40 mM magnesium chloride). Test compound dissolved in DMSO or only DMSO (control) was added and the samples were incubated for 10 min at 30° C. The kinase reaction was initiated by the addition of a substrate cocktail containing MBP and γ-^33P-ATP. […] The phosphorylated MBP was then separated from the residual γ-^33P-ATP using a phosphocellulose membrane (Millipore, Bedfrod, Mass.) and quantitated using a scintillation counter (Packard, Meriden, Conn.).

With `CC(C)(O)CNc1nc(Oc2ccc(F)cc2F)cc2[nH]nc(-c3cc(F)ccc3F)c12` [Compound 45, 1-[6-(2,4-Difluoro-phenoxy)-3-(2,5-difluoro-phenyl)-1H-pyrazolo[4,3-c]pyridin-4-ylamino]-2-methyl-propan-2-ol] the IC50 was about 1 nM.

tested on: not given; experiment: not given; settings: not given

First: Fc1ccc(Oc2ncc3c(-c4ccccc4Cl)n[nH]c3n2)c(F)c1 [Example 1, 3-(2-chlorophenyl)-6-(2,4-difluoro-phenoxy)-1H-pyrazolo[3,4-d]pyrimidine]
Second: Fc1ccc(Sc2ncc3c(-c4ccccc4Cl)n[nH]c3n2)c(F)c1 [Example 3, 3-(2-chlorophenyl)-6-(2,4-difluorophenylsulfanyl)-1H-pyrazolo[3,4-d]pyrimidine]
The melting point of the first is lower: 173.4 to 176.4 °C for the first, 177.6 to 183.2 °C for the second.

First: Fc1ccccc1Nc1ncc2c(-c3ccccc3Cl)n[nH]c2n1 [Example 2, [3-(2-chlorophenyl)-1H-pyrazolo[3,4-d]pyrimidin-6-yl]-(2-fluorophenyl)amine]
Second: Fc1ccc(Oc2cnc3c(-c4ccccc4Cl)n[nH]c3n2)c(F)c1 [Example 5, 3-(2-chlorophenyl)-6-(2,4-difluorophenoxy)-1H-pyrazolo[3,4-b]pyrazine]
The melting point of the first is lower: 230.2 to 232.4 °C for the first, 240.5 to 241.5 °C for the second.

Compared with `COc1ccccc1-c1n[nH]c2cc(Oc3ccc(F)cc3F)cnc12` [Example 8, 6-(2,4-Difluoro-phenoxy)-3-(2-methoxy-phenyl)-1H-pyrazolo[4,3-b]pyridine], `C[C@H](O)CNc1nc(Oc2ccc(F)cc2F)cc2[nH]nc(-c3ccccc3Cl)c12` [Example 24, (S)-1-[3-(2-Chloro-phenyl)-6-(2,4-difluoro-phenoxy)-1H-pyrazolo[4,3-c]pyridin-4-ylamino]-propan-2-ol] is higher in melting point: 143.2 to 144.9 °C for the first, 171.2 to 172 °C for the second.

Compared with `Clc1ccccc1Oc1ncc2c(-c3cccs3)n[nH]c2n1` [Example 14, 6-(2-Chloro-phenoxy)-3-thiophen-2-yl-1H-pyrazolo[3,4-d]pyrimidine], `OC[C@H](O)COc1nc(Oc2ccc(F)cc2F)nc2[nH]nc(-c3ccccc3Cl)c12` [Example 20, (S)-3-[3-(2-Chloro-phenyl)-6-(2,4-difluoro-phenoxy)-1H-pyrazolo[3,4-d]pyrimidin-4-yloxy]-propane-1,2-diol] is lower in melting point: 221.3 to 223.1 °C for the first, 179.2 to 181.3 °C for the second.

In the case of `C[C@H](O)CNc1nc(Oc2ccc(F)cc2F)nc2[nH]nc(-c3ccccc3Cl)c12` [Example 16, (S)-1-[3-(2-chlorophenyl)-6-(2,4-difluorophenoxy)-1H-pyrazolo[3,4-d]pyrimidin-4-ylamino]propan-2-ol], the melting point is reported as 254.6 to 258.2 °C.
